Source: publication PMC9863607, “Combined Use of Antimicrobial Peptides with Antiseptics against Multidrug-Resistant Bacteria: Pros and Cons” (Pharmaceutics, 2023)
Read-outs that look alike come from different tables or passages of the source. Peptide text beside a SMILES is read from it.

Legend:
S. aureus 1399/17 = assay: microbe, parasite or virus in culture; assay type: cell-based, Staphylococcus aureus
Protocol: (§1) In this regard the test plates were preincubated for 1 h at 37 °C with 0.1% bovine serum albumin (BSA) in distilled water before use. Bacteria were grown overnight at 37 °C with shaking in 2.1% Müller–Hinton broth (MHB), and then a small aliquot was transferred into the fresh portion of the same medium for another 2–3 h on the day of the experiment to provide us with the log phase bacterial suspension. Concentration of bacterial cells in suspension was evaluated based on absorbance at 620 nm and diluted down to 1 × 10^6 CFU/mL with MHB. Equal volumes of the prepared bacterial suspension in MHB and two-fold serial dilutions of the antimicrobials in 10 mM sodium phosphate (Na-P) buffer (pH 7.4) with 0.1% BSA were mixed and incubated overnight at 37 °C. The lowest concentration where no bacterial growth was observed the next day under visual examination was considered the minimal inhibitory concentration. The test was repeated at least three times, and the final MIC value was established as a median result. Each experiment was conducted in triplicates. Terasaki microplates (10 µL end volume, V-shaped bottom; Sarstedt, Nümbrecht, Germany) were used.

A. baumannii 7226/16 = assay: microbe, parasite or virus in culture; assay type: cell-based, Acinetobacter baumannii
Protocol: as §1

[1] = system: K. pneumoniae ESBL 344/17; assay: microbe, parasite or virus in culture; assay type: cell-based, Klebsiella pneumoniae
Protocol: as §1

E. coli ESBL 521/17 = assay: microbe, parasite or virus in culture; assay type: cell-based, Escherichia coli
Protocol: as §1

P. aeruginosa MDR 522/17 = assay: Crystal violet assay of biofilm formation; assay type: cell-based, Pseudomonas aeruginosa; conditions: median of 3 independent experiments; for Minimal FECI, AMP + CAPB, biofilm formation: combination with cocamidopropyl betaine; for Minimal FECI, AMP + CAPB, biofilm formation / Minimal FECI, AMP + DXD, biofilm formation / Minimal FECI, AMP + ETA, biofilm formation / Minimal FECI, AMP + PVG, biofilm formation / Minimal FECI, AMP + PTS, biofilm formation: sub-microbicidal concentrations; for Minimal FECI, AMP + DXD, biofilm formation: combination with dioxydin; for Minimal FECI, AMP + ETA, biofilm formation: combination with etidronic acid; for Minimal FECI, AMP + PVG, biofilm formation: combination with poviargolum; for Minimal FECI, AMP + PTS, biofilm formation: combination with prontosan; for MECBF partially inhibiting bacterial biofilms: minimal concentration with significant decrease vs intact control (Mann–Whitney, p < 0.05), 24 h, 37 °C, MHB
Protocol: The impact of the tested antimicrobials and their combinations on the formation of biofilms was quantitated as per the crystal violet assay protocol published by Merritt et al.. Testing was performed in 96-well immunological plates with U-shaped bottoms. […] Experimental samples were quadruplicated, and control without antimicrobials was octuplicated.
Then, the liquid content of the test plates was discarded, and the plates were gently washed in still water from residual traces of unattached planktonic bacteria. Each well was supplied with 125 μL 0.1% aqueous solution of crystal violet dye for 10 min at room temperature to stain biofilm components left attached to the surface. After staining, the plates were washed with clear water once more to remove excessive dye and left to air-dry. To quantify the amount of the bound dye corresponding to the thickness of the formed biofilm, it was redissolved in 30% acetic acid, 200 μL of which was introduced into each well. After 15 min at room temperature, the content of the wells was mixed by repetitive pipetting to ensure complete dye extraction, and 125 μL of each sample was transferred well-by-well into 96-well clear flat-bottom plates for spectrophotometric examination. OD was measured at 580 nm. Final results were calculated as medians based on three independent experiments.
Analyzing the combined action of AMPs and antiseptics (AS) in sub-microbicidal concentrations toward biofilms, we adopted the same approach based on the calculation of fractional indices as the one we used while testing antimicrobial activity on planktonic bacteria. For combinations, the series of concentrations from [MECBF(AMP) + MECBF(AS)], [½MECBF(AMP) + ½MECBF(AS)] and down to [1/32 × MECBF(AMP) + 1/32 × MECBF(AS)] was analyzed. […] The minimal FECI > 4 was interpreted as antagonism, FECI ≤ 0.5 as synergy, 0.5 < FECI ≤ 1 as additivity, and 1 < FECI ≤ 4 as independent action.

E. coli ML-35p = assay: Bacterial membrane permeability assay (nitrocefin / ONPG); assay type: cell-based, Escherichia coli
From the text: Monitoring the ability of the test substances or their combinations to affect bacterial membranes and enhance their permeability over time was organized using a method first proposed by Prof. Lehrer’s scientific group. The idea is based on utilizing special markers that cannot spontaneously penetrate bacterial membranes until those are damaged but would be readily processed by the bacteria’s own enzymes into products of different color once they enter. Then, the product can be spectrophotometrically detected, and the dynamics of its accumulation can be associated with the scale and swiftness of the inflicted membrane impairment. The specific bacterial strain E. coli ML-35p was designed for the procedure. It is a descendant of E. coli ML-35, first identified during lac operon studies, deficient in lactopermease but constitutively expressing cytoplasmic β-galactosidase, that was modified with a plasmid vector to additionally provide it with a periplasmic β-lactamase. These modifications create the basis for the mentioned membrane damage detection approach, as there are two specifically placed enzymes, but their lactose/galactose-based substrates cannot enter bacterial cells on their own in the absence of lactopermeases.
Nitrocefin (Calbiochem-Novabiochem, San Diego, CA, USA), which can be converted by β-lactamase into a pink-colored product detectable at 486 nm once it reaches the periplasmic space, was used as a marker of the outer membrane permeability, and ONPG (o-nitrophenyl-β-D-galactoside, Sigma, St. Louis, MO, USA), producing yellow-colored o-nitrophenyl detectable at 420 nm once hydrolyzed by β-galactosidase in the bacterial cytoplasm, was likewise used as an indicator of inner membrane damage.
An overnight culture of E. coli ML-35p grown at 37 °C in 3% Trypticase soy broth (TSB) was washed of the medium twice with 10 mM Na-P buffer (pH 7.4) via a 10 min long centrifugation at 600 g and 4 °C and diluted down in the same buffer to 1 × 10^8 CFU/mL stock concentration based on the optical density (OD) of the suspension at 620 nm (the formula being concentration [CFU/mL] = OD620 × 2.5 × 10^8). The stock was preferably used immediately or kept at 4ᵒC for no more than 1 h. Experiments were carried out in 96-well clear flat-bottom plates. The 100 µL samples containing antimicrobials or their combinations in desired concentrations, 10 mM Na-P buffer (pH 7.4), 100 mM NaCl, 20 μM of nitrocefin or 2.5 mM of ONPG, and bacteria in a final concentration of 2.5 × 10^7 CFU/mL were made in duplicates. Controls included no antimicrobial substances. Bacterial suspension was the last component and was added just before the start of the measurement. OD values at the wavelengths of 420 and 486 nm were collected once per minute for 1–2 h using SpectraMax 250 Microplate Spectrophotometer (Molecular Devices, San Jose, CA, USA); samples were maintained at 37 °C with 5 s of shaking before each read.

[2] = intact bacteria and bacteria lysed by 4×MIC of PG-1
[3] = antiseptics and surfactants, MHB, overnight 37 °C, median of 3–4 independent experiments, prontosan as polyhexanide

Molecule	MIC (S. aureus 1399/17; 1399/17, 1 h)	MIC (A. baumannii 7226/16; 7226/16, 1 h)	MIC ([1]; ESBL 344/17, 1 h)	MIC (E. coli ESBL 521/17; ESBL 521/17, 1 h)	Minimal FECI, AMP + CAPB, biofilm formation (P. aeruginosa MDR 522/17)	Minimal FECI, AMP + DXD, biofilm formation (P. aeruginosa MDR 522/17)	Minimal FECI, AMP + ETA, biofilm formation (P. aeruginosa MDR 522/17)	Minimal FECI, AMP + PVG, biofilm formation (P. aeruginosa MDR 522/17)	Minimal FECI, AMP + PTS, biofilm formation (P. aeruginosa MDR 522/17)	MECBF partially inhibiting bacterial biofilms (P. aeruginosa MDR 522/17)	Interference with nitrocefin degradation by bacterial β-lactamase (E. coli ML-35p; [2])	MIC (S. aureus 1399/17; [3])	MIC (A. baumannii 7226/16; [3])	MIC [1, 3]	MIC (E. coli ESBL 521/17; [3])	further results
CC[C@H](C)[C@H](NC(=O)[C@H](CCCNC(=N)N)NC(=O)[C@@H](NC(=O)[C@@H]1CCCN1C(=O)[C@@H]1CCCN1C(=O)[C@H](CCCNC(=N)N)NC(=O)[C@H](CCCNC(=N)N)NC(=O)[C@H](Cc1ccccc1)NC(=O)[C@@H]1CCCN1C(=O)[C@H](CC(C)C)NC(=O)[C@H](CCCNC(=N)N)NC(=O)[C@H](Cc1ccccc1)NC(=O)[C@@H](N)CCCNC(=N)N)[C@@H](C)CC)C(=O)N[C@@H](Cc1c[nH]cn1)C(=O)N1CCC[C@H]1C(=O)N1CCC[C@H]1C(=O)N1CCC[C@H]1C(=O)N[C@@H](Cc1ccccc1)C(=O)N[C@@H](Cc1ccc(O)cc1)C(=O)N1CCC[C@H]1C(=O)N1CCC[C@H]1C(=O)N[C@@H](Cc1ccccc1)C(=O)N[C@@H](CCCNC(=N)N)C(=O)N[C@@H](CCCNC(=N)N)C(=O)N[C@@H](Cc1ccccc1)C(=O)N[C@@H](CC(C)C)C(=O)O [ChBac3.4] (H-RFRLPFRRPPIRIHPPPFYPPFRRFL-OH; N-terminus assumed)	3.1 µM	6.2 µM	3.1 µM	3.1 µM	0.5	1.12	2	1	0.12	1/64	–	–	–	–	–	–
CC(O)(P(=O)(O)O)P(=O)(O)O [Etidronic acid]	–	–	–	–	–	–	–	–	–	1/32	prevents said enzyme from splitting nitrocefin	–	–	–	–	MIC (S. aureus 1399/17; Staphylococcus aureus, 1399/17, antiseptics and surfactants, MHB, overnight 37 °C, median of 3–4 independent experiments, prontosan as polyhexanide, read-out: MIC): 50 mg/mL; Interference with ONPG processing by cytoplasmic β-galactosidase (E. coli ML-35p; [2]): fully blocked the processing of ONPG; MIC (A. baumannii 7226/16; Acinetobacter baumannii, 7226/16, antiseptics and surfactants, MHB, overnight 37 °C, median of 3–4 independent experiments, prontosan as polyhexanide, read-out: MIC): 12.5 mg/mL; MIC ([1]; Klebsiella pneumoniae, ESBL344/17, antiseptics and surfactants, MHB, overnight 37 °C, median of 3–4 independent experiments, prontosan as polyhexanide, read-out: MIC): 50 mg/mL; MIC (E. coli ESBL 521/17; Escherichia coli, ESBL521/17, antiseptics and surfactants, MHB, overnight 37 °C, median of 3–4 independent experiments, prontosan as polyhexanide, read-out: MIC): 50 mg/mL
CC(C)C[C@H](NC(=O)[C@H](CCCNC(=N)N)NC(=O)CNC(=O)CNC(=O)[C@@H](N)CCCNC(=N)N)C(=O)N[C@H]1CSSC[C@@H](C(=O)N[C@H](C(=O)NCC(=O)N[C@@H](CCCNC(=N)N)C(N)=O)C(C)C)NC(=O)[C@H](C(C)C)NC(=O)[C@@H]2CSSC[C@H](NC(=O)[C@H](Cc3ccc(O)cc3)NC1=O)C(=O)N[C@@H](CCCNC(=N)N)C(=O)N[C@@H](CCCNC(=N)N)C(=O)N[C@@H](CCCNC(=N)N)C(=O)N[C@@H](Cc1ccccc1)C(=O)N2 [PG-1, protegrin 1]	0.4 µM	6.2 µM	3.1 µM	0.4 µM	0.12	1	2	0.25	0.12	1/64	–	–	–	–	–	–
[O-][n+]1c(CO)c(CO)[n+]([O-])c2ccccc21 [Dioxydin]	–	–	–	–	–	–	–	–	–	1/16	–	0.5 mg/mL	0.0312 mg/mL	0.0156 mg/mL	0.0156 mg/mL	Effect on the membranolytic action of AMPs (E. coli ML-35p; ¼ MIC AMP + ¼ MIC antiseptic, poviargolum: outer membrane only, data not shown): did not cause significant changes in the dynamics of the membranolytic action of AMPs; Effect on permeability of bacterial membranes for chromogenic markers, substance alone (E. coli ML-35p; ¼ and ½ MIC, nitrocefin (outer) and ONPG (inner membrane), 10 mM Na-P buffer pH 7.4, 100 mM NaCl, 37 °C): did not significantly increase the permeability of bacterial membranes
Cocamidopropyl betaine	–	–	–	–	–	–	–	–	–	1/512	block the degradation of nitrocephin by β-lactamase	>50,000 µg/mL	0.0781 mg/mL	0.1562 mg/mL	>50,000 µg/mL	–
